Experimental data: patent US20130225611A1, “Compositions and Methods for Reducing Cancer Cell Proliferation and Modulating Importin-Beta Function” (THE REGENTS OF THE UNIVERSITY OF CALIFORNIA, priority 2011, published 2013)

Assays:
[1] = test system: spindle assembly around sperm chromosomes; test: spindle assembly in metaphase-arrested Xenopus egg extracts; design: species or system Xenopus laevis; settings: 100 μM importazole
From the text: In order to determine whether importazole also disrupts mitosis, importazole was first tested in metaphase-arrested Xenopus egg extracts, which rely heavily on a RanGTP gradient for spindle assembly around sperm chromosomes. […] The effect was similar to that of adding a truncated importin-β (amino acids 71-876), a version that no longer binds to RanGTP and therefore sequesters its cargoes. […] Thus, importazole caused dramatic effects on spindle assembly consistent with the known role of the importin-β/RanGTP pathway in the Xenopus egg extract system, and is not a general microtubule inhibitor.
Xenopus laevis egg extracts were prepared as described by Hannak et al. (2006) Nat. Protoc. 1:2305-2314. For in vitro spindle assembly, Xenopus laevis sperm DNA was added to egg extracts supplemented with rhodamine-labeled tubulin. Asters were formed by addition of 5% DMSO. DNA was stained with Hoechst dye. The formation of microtubule-based structures was assessed using epifluorescence microscopy after a 30-minute room temperature incubation. In vitro microtubule polymerization and pelleting assays were performed by incubating 25 μM bovine tubulin, 1 mM GTP, and 5% DMSO in BRB80 buffer (80 mM PIPES, 1 mM MgCl2, 1 mM EGTA, pH 6.8) at 37° C. for 30 minutes. Polymerized microtubules were pelleted through a sucrose cushion, resuspended, and analyzed by SDS PAGE.

[2] = test system: CRM1-mediated export of NFAT-GFP; test: NFAT-GFP nuclear export after ionomycin washout in HEK 293 cells; type: cell-based, human; settings: HEK 293, importazole 40 μM, leptomycin B 10 ng/ml, 1 hour after ionomycin washout
Procedure: For all import and export experiments, HEK 293 cells stably expressing NFAT-GFP were grown on glass coverslips to approximately 50% confluency prior to drug treatment. In all cases, importazole was used at 40 μM and leptomycin B was used at 10 ng/ml. For controls, DMSO was used at a concentration of 0.4%. Ionomycin was added at 1.25 μM. Importazole and leptomycin B treatments were all for 1 hour. In all experiments cells were fixed with 4% formaldehyde prior to fluorescence microscopy. DNA was visualized with 1 μg/ml Hoechst dye.

Compound: truncated importin-β (amino acids 71-876): truncated importin-β that no longer binds to RanGTP and therefore sequesters its cargoes
- sperm nuclei at which normal bipolar microtubule structures were prevented from forming [1]: similar

Compound: CCC(=C/[C@H](C)C/C=C/C(C)=C/[C@@H](C)C(=O)[C@@H](C)[C@H](O)[C@@H](C)C/C(C)=C/C(=O)O)/C=C/[C@@H]1OC(=O)C=C[C@@H]1C [leptomycin B, reference compound]
- CRM1-mediated export of NFAT-GFP [2]: blocked
